Test results from PubChem BioAssay AID2060504 (Molecular Pharmacology Branch, DTP, NCI, 2025).

Tested on: 636577-100-R-J1-PDC complex spheroid viability
Assay: Anticancer human tumor 636577-100-R-J1-PDC patient-derived endometrial adenocarcinoma cell line growth inhibition [GQUAD]
Conditions: for IC50: curve of first compound; for viability, T/C: stronger effect = lower value
Procedure, shortened: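 Viability of tumor cells grown as complex spheroids with endothelial and stromal cells, exposed to drug combinations. Top concentration at or near clinical Cmax (else 10 microM), diluted in half-log increments.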

[1] = second compound 0.0316 µM, first compound 0.0316 µM
[2] = second compound 0.0316 µM, first compound 0.1 µM
[3] = second compound 0.0316 µM, first compound 0.316 µM
[4] = second compound 0.0316 µM, first compound 1 µM
[5] = second compound 0.0316 µM, first compound 3.16 µM
[6] = second compound 0.0316 µM, first compound 10 µM
[7] = second compound 0.1 µM, first compound 0.0316 µM
[8] = second compound 0.1 µM, first compound 0.1 µM
[9] = second compound 0.1 µM, first compound 0.316 µM
[10] = second compound 0.1 µM, first compound 1 µM
[11] = second compound 0.1 µM, first compound 3.16 µM
[12] = second compound 0.1 µM, first compound 10 µM
[13] = second compound 0.316 µM, first compound 0.0316 µM
[14] = second compound 0.316 µM, first compound 0.1 µM
[15] = second compound 0.316 µM, first compound 0.316 µM
[16] = second compound 0.316 µM, first compound 1 µM
[17] = second compound 0.316 µM, first compound 3.16 µM
[18] = second compound 0.316 µM, first compound 10 µM
[19] = second compound 1 µM, first compound 0.0316 µM
[20] = second compound 1 µM, first compound 0.1 µM
[21] = second compound 1 µM, first compound 0.316 µM
[22] = second compound 1 µM, first compound 1 µM
[23] = second compound 1 µM, first compound 3.16 µM
[24] = second compound 1 µM, first compound 10 µM
[25] = second compound 3.16 µM, first compound 0.0316 µM
[26] = second compound 3.16 µM, first compound 0.1 µM
[27] = second compound 3.16 µM, first compound 0.316 µM
[28] = second compound 3.16 µM, first compound 1 µM
[29] = second compound 3.16 µM, first compound 3.16 µM
[30] = second compound 3.16 µM, first compound 10 µM
[31] = second compound 10 µM, first compound 0.0316 µM
[32] = second compound 10 µM, first compound 0.1 µM
[33] = second compound 10 µM, first compound 0.316 µM
[34] = second compound 10 µM, first compound 1 µM
[35] = second compound 10 µM, first compound 3.16 µM
[36] = second compound 10 µM, first compound 10 µM
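Note: viability read after seven days of drug exposure.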
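Throughout, for viability, T/C: luminescence signal used as a proxy for viable cells; 100% = DMSO vehicle control wells.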

With `CCCS(=O)(=O)Nc1ccc(F)c(C(=O)c2c[nH]c3ncc(-c4ccc(Cl)cc4)cc23)c1F` + Cc1cnc(CNC(=O)c2c(=O)c3ccc(N4CCCN(C)CC4)nc3n3c2sc2ccccc23)cn1 the IC50 (second compound 0.0316 µM) was < 31.6 nM, the IC50 (second compound 0.1 µM) was < 31.6 nM and the IC50 (second compound 0.316 µM) was < 31.6 nM. The IC50 (second compound 1 µM) was < 31.6 nM, the IC50 (second compound 3.16 µM) was < 31.6 nM and the IC50 (second compound 10 µM) was < 31.6 nM. For the same compound, the viability, T/C [1] was 41.1%, the viability, T/C [2] was 40.1% and the viability, T/C [3] was 61.3%. It also gave a viability, T/C [4] of 33.9%, a viability, T/C [5] of 44.3% and a viability, T/C [6] of 24.2%. The viability, T/C [7] was 32%, the viability, T/C [8] was 31% and the viability, T/C [9] was 33.2%. It also gave a viability, T/C [10] of 31%, a viability, T/C [11] of 29.8% and a viability, T/C [12] of 21.4%. It also gave a viability, T/C [13] of 24.1%, a viability, T/C [14] of 25.8% and a viability, T/C [15] of 29.9%. For the same compound, the viability, T/C [16] was 27.4%, the viability, T/C [17] was 26.9% and the viability, T/C [18] was 15.7%. It also gave a viability, T/C [19] of 17.6%, a viability, T/C [20] of 24.2% and a viability, T/C [21] of 27.4%. It also gave a viability, T/C [22] of 26.8%, a viability, T/C [23] of 24.9% and a viability, T/C [24] of 14.7%. The viability, T/C [25] was 17.5%, the viability, T/C [26] was 21.9% and the viability, T/C [27] was 22%. It also gave a viability, T/C [28] of 25.1%, a viability, T/C [29] of 22.7% and a viability, T/C [30] of 15.4%. It also gave a viability, T/C [31] of 20.2%, a viability, T/C [32] of 22.1% and a viability, T/C [33] of 18.5%. The viability, T/C [34] was 21.1%, the viability, T/C [35] was 21.7% and the viability, T/C [36] was 6.34%.

In the case of `COc1cccc2c1C(=O)c1c(O)c3c(c(O)c1C2=O)CC(O)(C(=O)CO)CC3OC1CC(N)C(O)C(C)O1` (centres undefined) + Cc1cnc(CNC(=O)c2c(=O)c3ccc(N4CCCN(C)CC4)nc3n3c2sc2ccccc23)cn1, the IC50 (second compound 0.0316 µM) is reported as < 31.6 nM, the IC50 (second compound 0.1 µM) is reported as < 31.6 nM and the IC50 (second compound 0.316 µM) is reported as < 31.6 nM. The IC50 (second compound 1 µM) was < 31.6 nM, the IC50 (second compound 3.16 µM) was < 31.6 nM and the IC50 (second compound 10 µM) was < 31.6 nM. For the same compound, the viability, T/C [1] was 22.1%, the viability, T/C [2] was 16.6% and the viability, T/C [3] was 15.6%. It also gave a viability, T/C [4] of 8.2%, a viability, T/C [5] of 0.23% and a viability, T/C [6] of 0.38%. The viability, T/C [7] was 19.2%, the viability, T/C [8] was 15.4% and the viability, T/C [9] was 13.4%. For the same compound, the viability, T/C [10] was 7.3%, the viability, T/C [11] was 0.09% and the viability, T/C [12] was 0.33%. For the same compound, the viability, T/C [13] was 19%, the viability, T/C [14] was 16.6% and the viability, T/C [15] was 13.1%. It also gave a viability, T/C [16] of 7.79%, a viability, T/C [17] of 0.05% and a viability, T/C [18] of 0.28%. It also gave a viability, T/C [19] of 18.3%, a viability, T/C [20] of 15.7% and a viability, T/C [21] of 12.5%. For the same compound, the viability, T/C [22] was 6.92%, the viability, T/C [23] was 0.05% and the viability, T/C [24] was 0.3%. It also gave a viability, T/C [25] of 13.3%, a viability, T/C [26] of 17.1% and a viability, T/C [27] of 14.2%. The viability, T/C [28] was 0.81%, the viability, T/C [29] was 0.07% and the viability, T/C [30] was 0.15%. For the same compound, the viability, T/C [31] was 17.1%, the viability, T/C [32] was 15.1% and the viability, T/C [33] was 15.2%. The viability, T/C [34] was 0.07%, the viability, T/C [35] was 0.11% and the viability, T/C [36] was 0.15%.
